Experimental data as given in US20240082342A1, “PEPTIDE THERAPEUTICS FOR INCREASING LUNG CELL VIABILITY” (BOARD OF REGENTS, THE UNIVERSITY OF TEXAS SYSTEM, priority 2018, published 2024).
Entries after “also recorded” stand apart in the source; their conditions may differ.

Tests used:
human COPD lung tissues = experiment: Human COPD lung tissues treated ex vivo for 72 h; type: cell-based; conditions: for active caspase-3 in AT2 cells isolated from treated tissue: COPD tissue ex vivo
Procedure: Lung tissues from control subjects and patients with COPD were treated with or without CSP7 for 72 h ex vivo or in vitro. Lung homogenates were analyzed for immunoblot and Real time PCR.
Treatment of human lung tissues with CSP7 ex vivo. For ex vivo studies, de-identified human COPD lung tissues and histologically “normal” lung (nL) tissues were obtained from transplant recipients and from the Gift of Life Donor Program (www.donors1.org) from Temple University, Philadelphia, PA, USA.
(§1) Ex vivo studies using human lung tissues without patient identity was approved by the Institutional (UTHSCT) Review Board (IRB) through exempt protocol #12-003. nL and COPD tissues (n=4-5) were treated with or without CSP7 for 72 h ex vivo as described previously (Marudamuthu et al, 2019). Total protein and RNA extracted from the lung tissues were analyzed by Western blotting and qPCR for MUC5AC protein and mRNA, respectively. In separate experiments, AT2 cells isolated from nL and COPD lungs were treated with CSP7 or CP and immunoblotted for changes in senescence or apoptosis, p53, PAI-1 and SP-C expression. Similarly, nL and COPD tissues were treated with or without CSP7 or CP for 72 h ex vivo and AT2 cells isolated from these tissues were analyzed for senescence or apoptosis, p53, PAI-1 and SP-C.

WT mice exposed to PTS = experiment: Passive tobacco smoke (PTS) exposed WT mice treated IP with CSP or CSP7 once a week; type: in vivo, mouse; conditions: for p53, PAI-1 expression and apoptosis in A2Cs/A2ECs: PTS (or IL-17A) exposure; for pulmonary influx of CD4- and CD8-positive T cells, macrophages and neutrophils: PTS exposed mice
Procedure: Four weeks after initiation of PTS exposure, the WT mice were administered an intraperitoneal injection of vehicle or CSP (18.75 mg/kg body wt) or control peptide (CP) once a week for the next 4 weeks. Exposure to PTS was continued for another 12 weeks. BAL fluid and lysates (CL) from A2ECs isolated from PTS exposed WT mice treated with vehicle, CSP or CP were immunoblotted for p53 and PAI-1 and activation of caspase-3. -β-actin was tested for similar loading. […] The process involves inhibition of p53-induced PAI-1 expression.
FIGS. 57A-57C show inhibition of PTS-induced IL-17A by CSP in WT mice. Four weeks after initiation of PTS exposure as in FIG. 56, the WT mice were administered an intraperitoneal (IP) injection of vehicle or CSP (18.75 mg/kg body wt) or control peptide (CP) once a week for the next 4 weeks. Exposure to PTS was continued for another 12 weeks. Lung sections (A), lung homogenates (B) and total RNA (C) were analyzed for IL-17A and IL-17R mRNA expression by qRT-PCR.
FIGS. 60A-60B show inhibition of PTS-induced p53^AC, p53^S15 and p53, PAI-1, apoptosis and senescence by CSP7 in WT mice. Four weeks after initiation of PTS exposure as in FIG. 56, the WT mice were IP injected with vehicle or CSP7 or CP once a week for the next 4 weeks. Exposure to PTS was continued for another 12 weeks. (A) Lung sections were subjected IHC analysis for p53 and PAI-1. (B) A2ECs isolated from the lungs of these mice were immunoblotted for above mentioned proteins.
Wild-type (WT) and p53- and PAI-1-deficient mice of C57BL/6 background were bred in the inventor's facilities or were purchased from Jackson Laboratories. These mice were exposed to passive TSE from 40 research cigarettes over a 2 hour period 5 days/week for 20 weeks (^˜90 mg/m3 total solid particulates) by using a mechanical smoking chamber (Teague Enterprises, Davis, CA). Control mice were exposed to ambient air. Four weeks after initiation of passive TSE exposure, the mice were administered an intraperitoneal injection of CSP7 or scrambled control peptide (CP) (18.75 mg/kg body wt) once a week for 4 weeks (Marudamuthu et al. Am J Pathol 185: 55-68, 2015); Tiwari et al., supra). Mice were killed, and their lungs were used for further analyses (Bhandary et al., supra).

[1] = mice; cited from earlier work
[2] = test system: AT2 cells from COPD lung tissues; experiment: AT2 cells isolated from COPD lung tissues treated in vitro; type: cell-based, human
Procedure: as §1

PP2A = PP2A activity assay in AECs and lung tissues from COPD lungs; type: cell-based, human
Procedure: PP2A Activity Determination and PP2A Inhibitors PP2A activity was determined using the Millipore PP2A activity assay (17-313; Millipore) (Nath S, et al., Am J Respir Cell Mol Biol. 59:695-705, 2018 December).
Determination of protein phosphatase 2A (PP2A) activity. PP2A activity was determined in isolated AECs and lung homogenates using the PP2A activity assay kit (Millipore) (Nath et al, Am J Respir Cell Mol Biol 59:695-705, 2018. doi: 10.1165/rcmb.2018-01730C.)

WT mice with CS-LI = experiment: Chronic CS/TSE lung injury in WT mice treated by nebulization or IP injection; type: in vivo, mouse
[3] = AT2 cells from COPD tissue, in vitro

Substance: DGIWKASFTTFTVTKYWFYR (listed as Homo sapiens) [CSP, 20 residue caveolin-1 scaffolding domain peptide]
- MUC5AC, HDAC6, SPDEF, Ac-Tubulin, FOXA2 and other MCM markers (Western blot) (human COPD lung tissues; COPD tissue, 10 μM, 72 h): reverse
- p53, PAI-1 expression and apoptosis in A2Cs/A2ECs (WT mice exposed to PTS): mitigates A2EC apoptosis
- pulmonary influx of CD4- and CD8-positive T cells, macrophages and neutrophils (WT mice exposed to PTS): inhibits pulmonary influx of CD4- and CD8-positive T cells, macrophages and neutrophils
- lung inflammation, pulmonary PMN accumulation (MPO) (WT mice exposed to PTS; WT mice, 20 weeks PTS): significantly suppresses lung inflammation
- lung volume (micro-CT) (WT mice exposed to PTS; WT mice, 20 weeks PTS): significantly reduced; also recorded: reduced lung volumes
- Cav1 binding with PP2Ac in A2ECs (WT mice exposed to PTS; WT mice, PTS): inhibited the PTS-induced binding of Cav1 with PP2Ac
- Cav1 expression in A2ECs (WT mice exposed to PTS; WT mice, PTS): without affecting Cav1 expression; also recorded: without inhibiting PTS-induced Cav1
- PTS-induced IL-17A (and IL-17R) in the lungs (WT mice exposed to PTS; WT mice, PTS): inhibits PTS-induced accumulation of IL-17A in the lungs; also recorded: significantly inhibited PTS-induced IL-17A and IL-17R levels
- acetylated p53, serine-15 phosphorylated p53, total p53 and Sirt1 in A2ECs (WT mice exposed to PTS; WT mice, PTS): blocked ^p15Sp53; also recorded: inhibits acetylation; also recorded: restoration of Sirt1; also recorded: reduced p53^AC, p53^S15 and total p53 levels, and restored baseline Sirt1 expression
- miR-34a expression in A2ECs (WT mice exposed to PTS; WT mice, PTS): suppression of miR-34a expression; also recorded: significantly inhibited
- tolerability [1]: well-tolerated

Substance: FTTFTVT (listed as Homo sapiens) [CSP7, heptapeptide fragment of the caveolin-1 scaffolding domain peptide CSP]
- PP2A and CIP2A mRNA (human COPD lung tissues; COPD tissue): significantly reversed
- active caspase-3 in AT2 cells isolated from treated tissue (human COPD lung tissues): reduced active caspase-3
- MUC5AC, HDAC6, FOXA3, CAV1 and FOXA2 mRNA (human COPD lung tissues; COPD tissue, 10 μM, 72 h): parallel inhibition of MUC5AC, HDAC6, FOXA3 and CAV1 mRNA with an increase in FOXA2 mRNA
- MUC5AC, HDAC6, SPDEF, Ac-Tubulin, FOXA2 and other MCM markers (Western blot) (human COPD lung tissues; COPD tissue, 10 μM, 72 h): reverse; also recorded: reduced MUC5AC and other MCM markers
- baseline CAV1, p53 and PAI-1 (human COPD lung tissues; COPD tissue, 10 μM, 72 h): suppression of baseline CAV1, p53, and PAI-1
- p53 and SP-C in AT2 cells isolated from treated tissue (human COPD lung tissues; COPD tissue, 72 h ex vivo): reduction in p53 while restoring baseline SP-C expression
- effect in nL tissues (human COPD lung tissues; normal lung tissue ex vivo): minimal effect
- p53, PAI-1 expression and apoptosis in A2Cs/A2ECs (WT mice exposed to PTS): inhibited PTS or IL-17A exposure induced p53
- pulmonary influx of CD4- and CD8-positive T cells, macrophages and neutrophils (WT mice exposed to PTS): inhibits pulmonary influx of CD4- and CD8-positive T cells, macrophages and neutrophils; also recorded: reversed
- PAI-1, p53^AC, p53^S15, cleaved Caspase-3 and beta-galactosidase in lung sections and A2ECs (WT mice exposed to PTS; WT mice, 20 weeks PTS): markedly reduced
- lung volume (micro-CT) (WT mice exposed to PTS; WT mice, 20 weeks PTS): significantly reduced; also recorded: reduced lung volumes
- Cav1 expression in A2ECs (WT mice exposed to PTS; WT mice, PTS): without inhibiting PTS-induced Cav1
- PTS-induced IL-17A (and IL-17R) in the lungs (WT mice exposed to PTS; WT mice, PTS): inhibits PTS-induced accumulation of IL-17A in the lungs
- acetylated p53, serine-15 phosphorylated p53, total p53 and Sirt1 in A2ECs (WT mice exposed to PTS; WT mice, PTS): reduced p53^AC, p53^S15 and total p53 levels, and restored baseline Sirt1 expression
- miR-34a expression in A2ECs (WT mice exposed to PTS; WT mice, PTS): reduced miR-34a
- p53 and PAI-1 in BAL fluids and lung homogenates (WT mice exposed to PTS; injected 4 weeks after initiation of TSE, 20 weeks): significantly suppressed the expression of p53 and PAI-1
- SP-C level [2, 3]: restored baseline SP-C level
- p53 and apoptosis [2, 3]: marked suppression of p53 and apoptosis
- response of AT2 cells from nL tissues ([2]; subjects without COPD): failed to respond to CSP7 treatment
- tolerability [1]: well-tolerated
- PP2A activity (PP2A; AECs from COPD lungs, 48 h): increased activity of PP2AC; also recorded: significantly improved
- Ac-Tub staining in tracheal sections (WT mice with CS-LI; 20 weeks TSE/CS): reversed in CSP7 treated WT mice; also recorded: improved
- PAI-1 expression in AT2 cells (WT mice with CS-LI; CS-LI WT mice): reduced
- total, acetylated, serine phosphorylated p53, cleaved caspase-3, β-galactosidase in AT2 cells (WT mice with CS-LI; CS-LI WT mice, IP): markedly suppressed
- MUC5AC and HDAC6 mRNA in TECs (WT mice with CS-LI; CS-LI mice): significantly reduced
- MUC5AC, HDAC6, FOXA3, CAV1 and FOXA2 mRNA in lung (WT mice with CS-LI; CS-LI mice): significant reduction in MUC5AC, HDAC6, FOXA3, and CAV1 mRNA
- PP2A and CIP2A mRNA in lung (WT mice with CS-LI; CS-LI mice): reversed
- macrophages in bronchoalveolar lavage (WT mice with CS-LI; CS-LI mice): significantly reduced
- number of ciliated (Ac-Tub positive) tracheal epithelial cells (WT mice with CS-LI; MTEC/TECs isolated from treated mice): reversal; also recorded: significantly reversed; also recorded: increased the number of ciliated TECs
- H&E alveolar damage / mean linear intercept (MLI) (WT mice with CS-LI; Neb and IP): reversed; also recorded: significantly (P<0.0001) reduced
- IHC Ac-Tubulin, LC3 (and CAV1) in lung sections (WT mice with CS-LI; Neb and IP): reversed in CSP7 (Neb and IP) treated WT mice
- IHC Cav1 expression in lung sections (WT mice with CS-LI; Neb and IP): overcome
- IHC MUC5AC and HDAC6 staining in lung sections (WT mice with CS-LI; Neb or IP): reversed; also recorded: remarkably improved; also recorded: markedly reduced
- MUC5AC, HDAC6, SPDEF, LC3, FOXA2, Ac-tubulin in lung homogenates (WT mice with CS-LI; Neb or IP): alleviated TSE MUC5AC and HDAC6 expression; also recorded: reversed
- co-localization of MUC5AC and HDAC6 in lung sections (WT mice with CS-LI; Neb or IP): reversed; also recorded: markedly reduced in those treated with CSP7
- CAV1, p53 and PAI-1 in lung homogenates (WT mice with CS-LI; via airways or systemically): marked inhibition of CAV1, p53, and PAI-1

Substance: WGIDKAFFTTSTVTYKWFRY [CP, scrambled control peptide with the same amino acid composition as CSP, reference compound]
- active caspase-3 in AT2 cells isolated from treated tissue (human COPD lung tissues): otherwise increased
- MUC5AC, HDAC6, FOXA3, CAV1 and FOXA2 mRNA (human COPD lung tissues; COPD tissue, 10 μM, 72 h): failed to respond
- acetylated p53, serine-15 phosphorylated p53, total p53 and Sirt1 in A2ECs (WT mice exposed to PTS; WT mice, PTS): still showed elevated p53^AC, p53^S15, total p53 and PAI-1
- p53 and apoptosis [2, 3]: remained elevated
- PP2A activity (PP2A; AECs from COPD lungs, 48 h): failed to increase the PP2A activity
- PP2A activity (PP2A; COPD lung tissues ex vivo, 10 μM, 72 h): minimal effect
- H&E alveolar damage / mean linear intercept (MLI) (WT mice with CS-LI; Neb and IP): continued to show 479 alveolar damage
- IHC MUC5AC and HDAC6 staining in lung sections (WT mice with CS-LI; Neb or IP): not evident
- co-localization of MUC5AC and HDAC6 in lung sections (WT mice with CS-LI; Neb or IP): Increased staining and co-localization
